Measured values taken from publication PMC7899551, “Phase 1 study of Z-endoxifen in patients with advanced gynecologic, desmoid, and hormone receptor-positive solid tumors” (Oncotarget, 2021).
Several values for one entry are separate records, joined by “and”; a condition that tells them apart may be missing. Equal entries are not always repeated. Values belong to the molecule of their own block, whether it stands above or below them.

Tests used:
ERα = settings: cited from earlier work
ERβ = settings: cited from earlier work
[1] = Plasma pharmacokinetics of Z-endoxifen (HPLC assay, non-compartmental analysis); assay type: in vivo, human
Experimental: This was an open-label trial of Z-endoxifen in patients with advanced solid tumors (https://clinicaltrials.gov/ identifier: NCT01273168). Z-endoxifen-HCl was supplied by the Pharmaceutical Management Branch, National Cancer Institute, as 20 and 40 mg capsules; agent was administered orally once daily on a continuous schedule in 28-day cycles with a starting dose of 20 mg/day taken either 1 hour before or 2 hours after meals. Dose escalation followed a traditional 3+3 design in which patients were dose-escalated to the next dose level (DL) in cohorts of 3 patients until dose-limiting toxicity (DLT) was observed. DLT was defined as an adverse event that occurred during cycle 1, was thought to be related to study drug administration, and met one of the following criteria: grade ≥ 3 non-hematologic toxicities (except diarrhea, nausea and vomiting, alopecia, rising creatinine or electrolyte toxicities that resolved within 24 hours, or intolerable estrogen withdrawal symptoms) or grade ≥ 3 hematologic toxicities (except neutropenia lasting less than 5 days, lymphopenia, or anemia). Eight dose levels (DL1-8) were examined: 20, 40, 60, 100, 140, 200, 280, and 360 mg, respectively. Two patients at DL8 received the free base form of Z-endoxifen on day 1 rather than the hydrochloride salt to assess the pharmacokinetics of that formulation.
A 3-mL blood sample was collected in a K2 EDTA tube on day 1 of cycle 1 before drug administration and at the following times post-first dose: 0.5, 1, 2, 3, 4, 6, 8, and 24 hours. Samples were collected at the same time points on day 28 of cycle 1 for DL1-6 until a protocol amendment eliminated the requirement for these samples at the higher dose levels. Samples were wrapped in aluminum foil after collection to protect from light exposure. A 10-mL aliquot of urine was collected before agent administration on cycle 1 day 1, for 24 hours after dosing on day 1, and before drug administration on cycle 2 day 1; samples were refrigerated prior to analysis.
Plasma and urine concentrations of Z- and E-endoxifen were measured using a validated, post-column fluorescence derivatization HPLC assay. Non-compartmental pharmacokinetic parameters were calculated using WinNonlin version 7.0 (Pharsight Corp., Mountainview, CA, USA). A 2 μM Cmax target was established for day 28 plasma concentration. The amount of Z-endoxifen excreted in urine was measured over a 24-hour collection period.

[2] = tested on: metastatic ER+ breast cancer; settings: women with metastatic ER+ breast cancer; cited from earlier work
[3] = tested on: hormone-refractory prostate cancer; settings: 200 mg/m^2/day, men with hormone-refractory prostate cancer; cited from earlier work
ovarian cancer = settings: patients with ovarian cancer; cited from earlier work
[4] = free base, 360 mg oral, day 1, mean of patients 35 and 36
[5] = free base, 360 mg oral, day 1, patients 35 and 36 individually

Molecule: 4-hydroxy-tamoxifen
binding affinity relative to tamoxifen or NDM-tamoxifen (ERα): approximately 100 fold
binding affinity relative to tamoxifen or NDM-tamoxifen (ERβ): approximately 100 fold

Plasma concentration as percentage of Z-endoxifen levels ([1]; after oral Z-endoxifen): < 2%
Molecule: CC/C(=C(/c1ccc(O)cc1)c1ccc(OCCNC)cc1)c1ccccc1 [E-endoxifen]

Molecule: CC/C(=C(\c1ccc(O)cc1)c1ccc(OCCNC)cc1)c1ccccc1 [Endoxifen, 4-hydroxy-N-desmethyl-tamoxifen]
binding affinity relative to tamoxifen or NDM-tamoxifen (ERα): approximately 100 fold
binding affinity relative to tamoxifen or NDM-tamoxifen (ERβ): approximately 100 fold

Molecule: CC/C(=C(\c1ccc(O)cc1)c1ccc(OCCNC)cc1)c1ccccc1 [free base form of Z-endoxifen]
AUC(0–24 h), Mean [1, 4]: 25248 ng·h/mL
C24 h, Mean [1, 4]: 790 ng/mL
Cmax, Mean [1, 4]: 1770 ng/mL
Tmax, Mean [1, 4]: 5.0 h
AUC(0–24 h) [1, 5]: 8959 ng·h/mL and 41537 ng·h/mL
C24h [1, 5]: 12 ng/mL and 1568 ng/mL
Tmax [1, 5]: 6.0 h and 4.0 h

Molecule: CC/C(=C(\c1ccccc1)c1ccc(OCCN(C)C)cc1)c1ccccc1 [tamoxifen]
women deriving benefit [2]: about 50%
mean plasma tamoxifen concentration [3]: 2.94 (± 1.15) μM
complete responses (ovarian cancer): 4%
partial responses (ovarian cancer): 9%
stable disease (ovarian cancer): 38%
